The values below come from US9050295B2, “Composition for treatment of tuberculosis” (ETH Zurich, priority 2007, dated 2015).

The experiment has as its target EthR-VP16 binding to PethR (Mycobacterium bovis, UniProt Q7TVI1). Type of experiment: cell-based, E. coli BL21(DE3).

Chain of EthR-VP16 binding to PethR (Q7TVI1 whole entry, looked up): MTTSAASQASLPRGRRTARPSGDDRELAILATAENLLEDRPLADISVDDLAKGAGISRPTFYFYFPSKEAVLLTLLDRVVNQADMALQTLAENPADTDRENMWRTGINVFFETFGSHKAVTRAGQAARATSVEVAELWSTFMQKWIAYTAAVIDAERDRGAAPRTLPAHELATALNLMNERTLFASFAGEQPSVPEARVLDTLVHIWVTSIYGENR

Turning to `CCCC(=O)OCCc1ccccc1` [2-Phenylethyl butyrate], the “green fluorescence (EthR-controlled GFP expression)” value is given as “adjustable green fluorescence”.
